pEC50: −log10 of the molar value. Where two headings read alike, the source gives them in different places.
Tested on: HCV genotype 1b replicon in Huh 7 cells
Assay: HCV replicon assay (1b_Huh-Luc/Neo-ET cell line, luciferase readout)
Format: cell-based
Details: Hepatitis C virus, read-out: Inhibition of HCV genotype 1b
Protocol: Biological activity of the compounds of the invention was determined using an HCV replicon assay. The 1b_Huh-Luc/Neo-ET cell line persistently expressing a bicistronic genotype 1b replicon in Huh 7 cells was obtained from ReBLikon GMBH. This cell line was used to test compound inhibition using luciferase enzyme activity readout as a measurement of compound inhibition of replicon levels.
On Day 1 (the day after plating), each compound is added in triplicate to the cells. Plates incubated for 72 h prior to running the luciferase assay. Enzyme activity was measured using a Bright-Glo Kit (cat. number E2620) manufactured by Promega Corporation. The following equation was used to generate a percent control value for each compound. % Control=(Average Compound Value/Average Control)*100
The EC50 value was determined using GraphPad Prism and the following equation: Y=Bottom+(Top−Bottom)/(1+10^((Log IC50−X)*HillSlope))
EC50 values of compounds are repeated several times in the replicon assay.

[1] = Table 2, genotype 1b replicon, Huh 7 cells, 72 h, luciferase
[2] = Table 1, genotype 1b replicon, Huh 7 cells, 72 h, luciferase

Compound | pEC50 (Huh-7, HCV 1b replicon) | pEC50 [2] | also measured
COC[C@H](NC(=O)OC)C(=O)N1CCC[C@H]1c1ncc(-c2ccc3cc(-c4ccc5nc([C@@H]6COCCN6C(=O)[C@H](COC)NC(=O)OC)[nH]c5c4)ccc3c2)[nH]1 [358-1] |  |  | pEC50 [1]: > 9.00
COC(=O)N[C@H](C(=O)N1CCC[C@H]1c1ncc(-c2ccc(-c3cc4ccc(-c5cnc([C@@H]6CCCN6C(=O)[C@H](NC(=O)OC)c6ccccc6)[nH]5)cc4cn3)cc2)[nH]1)[C@@H](C)OC [compound 483] | > 9.00 |  | 
COC(=O)N[C@H](C(=O)N1CCC[C@H]1c1ncc(-c2ccc3nc(-c4ccc5nc([C@@H]6CCCN6C(=O)[C@@H](NC(=O)OC)C6CC6)[nH]c5c4)ccc3c2)[nH]1)C1CC1 [compound 385] |  |  | pEC50 [1]: > 9.00
COC(=O)N[C@H](C(=O)N1CCC[C@H]1c1ncc(-c2ccc(-c3ccc4cc(-c5c[nH]c([C@@H]6CCCN6C(=O)[C@@H](NC(=O)OC)C6CCOCC6)n5)cnc4c3)cc2)[nH]1)C(C)C [compound 50] |  | > 9.00 | 
COC(=O)N[C@H](C(=O)N1CCC[C@H]1c1ncc(-c2ccc(-c3ccc4cc(-c5c[nH]c([C@@H]6CCCN6C(=O)[C@H](NC(=O)OC)c6ccccc6)n5)ccc4c3)cc2)[nH]1)C(C)C [compound 7] |  | > 9.00 | 
COC(=O)N[C@H](C(=O)N1CCC[C@H]1c1ncc(-c2ccc3cc(-c4cc5[nH]c([C@@H]6CCCN6C(=O)[C@@H](NC(=O)OC)C6CCOCC6)nc5cc4F)ccc3c2)[nH]1)C1CCOCC1 [compound 702] | > 9.00 |  | 
COC(=O)N[C@@H](C)C(=O)N1CCC[C@H]1c1ncc(-c2ccc3cc(-c4ccc(-c5cnc([C@@H]6CCCN6C(=O)[C@H](NC(=O)OC)c6ccccc6)[nH]5)cn4)ccc3c2)[nH]1 [compound 338] |  |  | pEC50 [1]: > 9.00
COC(=O)N[C@@H](C)C(=O)N1CCC[C@H]1C(=O)N[C@H](C)c1ccc(-c2ccc3cc(-c4cnc([C@@H]5CCCN5C(=O)[C@H](C)NC(=O)OC)[nH]4)ccc3c2)cc1 [compound 560] | 6.00 to 8.00 |  | 
COC(=O)N[C@H](C(=O)N1CCC[C@H]1c1ncc(-c2ccc3cc(-c4ccc(-c5cnc([C@@H]6CCCN6C(=O)[C@H](NC(=O)OC)c6ccccc6)[nH]5)cc4F)ncc3c2)[nH]1)C1CCOCC1 [compound 165] |  | > 9.00 | 
COC(=O)N[C@H](C(=O)N1CCC[C@H]1c1ncc(-c2ccc3cc(-c4cc5[nH]c([C@@H]6CCCN6C(=O)[C@@H](NC(=O)OC)[C@@H](C)OC)nc5cc4F)ccc3c2)[nH]1)[C@@H](C)OC [compound 701] | > 9.00 |  | 
CC[C@H](C)[C@H](NC(=O)OC)C(=O)N1CCC[C@H]1c1ncc(-c2ccc3cc(-c4ccc5nc([C@@H]6CCCN6C(=O)[C@@H](NC(=O)OC)[C@@H](C)OC)[nH]c5c4)ccc3c2)[nH]1 [compound 526] | > 9.00 |  | 
COC[C@H](NC(=O)OC)C(=O)N1CCC[C@H]1c1ncc(-c2ccc3cc(-c4ccc5nc([C@@H]6CCCN6C(=O)[C@H](COC)NC(=O)OC)[nH]c5c4)ccc3c2)[nH]1 [345-1] |  |  | pEC50 [1]: > 9.00
COC(=O)N[C@H](C(=O)N1CCC[C@H]1c1ncc(-c2ccc(-c3ccc4cc(-c5cnc([C@@H]6CCCN6C(=O)[C@H](NC(=O)OC)c6ccccc6)[nH]5)ccc4n3)cc2F)[nH]1)C(C)C [compound 124] |  | > 9.00 | 
COC(=O)N[C@H](C(=O)N1CCC[C@H]1c1ncc(-c2ccc3cc(-c4ccc(-c5cnc([C@@H]6COCCN6C(=O)[C@H](NC(=O)OC)c6ccccc6)[nH]5)cc4)ccc3c2)[nH]1)C(C)C [compound 131] |  | > 9.00 | 
COC(=O)N[C@H](C(=O)N1CCCC[C@H]1c1ncc(-c2ccc3cc(-c4ccc(-c5cnc([C@@H]6CCCN6C(=O)[C@@H](NC(=O)OC)C(C)C)[nH]5)cc4)ccc3c2)[nH]1)C(C)C [compound 307] |  |  | pEC50 [1]: > 9.00
COC(=O)N[C@H](C(=O)N1CCC[C@H]1c1nc(-c2cnc3cc(-c4ccc(-c5cnc([C@@H]6CCCN6C(=O)[C@@H](NC(=O)OC)C6CCOCC6)[nH]5)cc4)ccc3c2)c[nH]1)C(C)C [compound 49] |  | > 9.00 | 
COC(=O)N[C@H](C(=O)N1CCC[C@H]1c1ncc(-c2ccc3oc(-c4ccc(-c5cnc([C@@H]6CCCN6C(=O)[C@H](NC(=O)OC(C)(C)C)c6ccccc6)[nH]5)cc4)nc3c2)[nH]1)C(C)C [compound 535] | > 9.00 |  | 
COC(=O)N[C@H](C(=O)N1CCC[C@H]1c1nc(-c2ccc3nc(N4CCC(c5cnc([C@@H]6CCCN6C(=O)[C@@H](NC(=O)OC)C6CC6)[nH]5)CC4)ccc3c2)c[nH]1)C1CC1 [compound 274] |  | 8.00 to 9.00 | 
COC(=O)N[C@H](C(=O)N1CCC[C@H]1c1ncc(-c2ccc3cc(-c4ccc(-c5cnc([C@@H]6COCCN6C(=O)[C@@H](NC(=O)OC)C(C)C)[nH]5)cc4)ccc3c2)[nH]1)C(C)C [compound 139] |  | > 9.00 | 
COC(=O)N[C@H](C(=O)N1CCC[C@H]1c1ncc(-c2ccc3nc(-c4ccc(-c5cnc([C@@H]6CCCN6C(=O)[C@H](NC(=O)OC)c6ccccc6)[nH]5)cc4)ccc3c2)[nH]1)[C@@H](C)OC [compound 489] | > 9.00 |  | 

Compound | pEC50 (Huh-7, HCV 1b replicon) | pEC50 [2] | also measured
COC(=O)N[C@H](C(=O)N1CCC[C@H]1c1ncc(-c2ccc3cc(-c4ccc5nc([C@@H]6CCCN6C(=O)[C@@H](NC(=O)OC)[C@@H](C)O)[nH]c5c4)ccc3c2)[nH]1)[C@@H](C)O [compound 175] |  | > 9.00 | 
COC(=O)N[C@@H](C(=O)N1CCC[C@H]1c1ncc(-c2ccc(-c3ccc4cc(-c5cnc([C@@H]6CCCN6C(=O)[C@H](NC(=O)OC)c6ccsc6)[nH]5)ccc4n3)c(F)c2)[nH]1)c1ccccc1 [compound 485] | > 9.00 |  | 
COC(=O)NC(C(=O)N1CCC[C@H]1c1ncc(-c2ccc3cc(-c4ccc5nc([C@@H]6CCCN6C(=O)C(NC(=O)OC)=C(C)C)[nH]c5c4)ccc3c2)[nH]1)=C(C)C [compound 512] | > 9.00 |  | 
CC[C@H](C)[C@H](NC(=O)OC)C(=O)N1CCC[C@H]1c1nc2ccc(-c3ccc4cc(-c5cnc([C@@H]6CCCN6C(=O)[C@@H](NC(=O)OC)[C@@H](C)O)[nH]5)ccc4c3)cc2[nH]1 [compound 524] | > 9.00 |  | 
COC(=O)N[C@H](C(=O)N1CCC[C@H]1c1ncc(-c2ccc(-c3ccc4cc(-c5c[nH]c([C@@H]6CCCN6C(=O)[C@@H](NC(=O)OC)[C@@H](C)OC)n5)ccc4n3)cc2)[nH]1)C(C)C [compound 40] |  | > 9.00 | 
COC(=O)N[C@H](C(=O)N1CCC[C@H]1c1nc(-c2ccc3cc(-c4ccc(-c5cnc([C@@H]6CCCN6C(=O)[C@@H](NC(=O)OC)C6CCOCC6)[nH]5)cn4)ccc3c2)c[nH]1)C(C)C [compound 51] |  | > 9.00 | 
COC(=O)N[C@H](C(=O)N1CCC[C@H]1c1ncc(-c2ccc(-c3ccc4cc(-c5cnc([C@@H]6CSCN6C(=O)[C@@H](NC(=O)OC)C(C)C)[nH]5)ccc4c3)cc2)[nH]1)C(C)C [compound 451] | > 9.00 |  | 
COC(=O)N[C@H](C(=O)N1CCC[C@H]1c1ncc(-c2ccc(-c3ccc4cc(-c5c[nH]c([C@@H]6CCCN6C(=O)[C@H](NC(=O)NC(C)(C)C)c6ccccc6)n5)ccc4c3)cc2)[nH]1)C(C)C [compound 23] |  | > 9.00 | 
COC(=O)N[C@@H](C(=O)N1CCC[C@H]1c1nc(-c2ccc3nc(-c4ccc(-c5cnc([C@@H]6CCCN6C(=O)[C@H](NC(=O)OC)c6ccccc6)[nH]5)cc4F)ccc3c2)c[nH]1)c1ccccc1 [compound 97] |  | > 9.00 | 
COC(=O)N[C@H](C(=O)N1CCC[C@H]1c1nc(-c2ccc3cc(-c4ccc(-c5cnc([C@@H]6CCCN6C(=O)[C@@H](NC(=O)OC)C(C)C)[nH]5)cc4F)ccc3c2)c[nH]1)C(C)C [compound 66] |  | > 9.00 | 
COC(=O)N[C@@H](C(=O)N1CCC[C@H]1C(=O)Nc1ccc(-c2ccc3cc(-c4cnc([C@@H]5CCCN5C(=O)[C@H](NC(=O)OC)c5ccccc5)[nH]4)ccc3n2)cc1)c1ccccc1 [compound 543] | > 9.00 |  | 
COC(=O)N[C@H](C(=O)N1CCN(C(=O)OC)C[C@H]1c1ncc(-c2ccc(-c3ccc4cc(-c5cnc([C@@H]6CCCN6C(=O)[C@@H](NC(=O)OC)C6CCOCC6)[nH]5)ccc4n3)cc2)[nH]1)C(C)C [compound 470] | > 9.00 |  | 
COC(=O)N[C@H](C(=O)N1CCC[C@H]1c1nc2ccc3cc(-c4ccc5cc(-c6cnc([C@@H]7CCCN7C(=O)[C@H](NC(=O)OC7CCOCC7)c7ccccc7)[nH]6)ccc5n4)ccc3c2[nH]1)C(C)C [compound 299] |  | > 9.00 | 
COC(=O)N[C@H](C(=O)N1CCC[C@H]1c1ncc(-c2ccc(-c3ccc4cc(-c5c[nH]c([C@@H]6CCCN6C(=O)[C@H](NC(=O)OC)c6ccccc6)n5)cnc4c3)nc2)[nH]1)C(C)C [compound 60] |  | > 9.00 | 
COC(=O)N[C@H](C(=O)N1CCC[C@H]1c1nc(-c2ccc3cc(-c4ccc(-c5cnc([C@@H]6CCCN6C(=O)[C@H](NC(=O)OC)c6ccccc6)[nH]5)cc4F)ccc3c2)c[nH]1)C(C)C [compound 64] |  | > 9.00 | 
COC(=O)N[C@H](C(=O)N1CCC[C@H]1c1nc(-c2cnc3cc(-c4ccc(-c5cnc([C@@H]6CCCN6C(=O)[C@H](NC(=O)OC)c6ccccc6)[nH]5)cc4)ccc3c2)c[nH]1)C(C)C [compound 32] |  | > 9.00 | 
COC(=O)N[C@H](C(=O)N1CCC[C@H]1c1ncc(-c2ccc3nc(-c4ccc(-c5cnc([C@@H]6CCCN6C(=O)[C@H](NC(=O)OC)c6ccccc6)[nH]5)cc4)oc3c2)[nH]1)C(C)C [compound 255] |  | > 9.00 | 
COC(=O)N[C@H](C(=O)N1CCC[C@H]1c1ncc(-c2ccc3cc(-c4ccc5nc([C@@H]6CCCN6C(=O)[C@@H](NC(=O)OC)C(C)C)[nH]c5c4)nnc3c2)[nH]1)C(C)C [compound 390] |  |  | pEC50 [1]: > 9.00
COC(=O)N[C@H](C(=O)N1CCC[C@H]1c1ncc(-c2ccc(-c3nc4ccc(-c5cnc([C@@H]6CCCN6C(=O)[C@H](NC(=O)OC(C)(C)C)c6ccccc6)[nH]5)cc4s3)cc2)[nH]1)C(C)C [compound 242] |  | > 9.00 | 

Source: patent publication US8877707B2, “Inhibitors of HCV NS5A” (Presidio Pharmaceuticals, Inc., priority 2010, dated 2014)
